# Patent US20230365530A1, “QUINAZOLINE-2,4-DIAMINE DERIVATIVE AND PHARMACEUTICAL COMPOSITION FOR PREVENTING OR TREATING CANCER COMPRISING SAME AS ACTIVE INGREDIENT” (THE ASEAN FOUNDATION, priority 2020, published 2023)
# Biological target: EHMT2 (Euchromatic histone-lysine N-methyltransferase 2) (Homo sapiens (Human), UniProt Q96KQ7)
# Test: EHMT2 enzyme inhibition, LANCE TR-FRET
# Assay type: biochemical
# Conditions: histone H3 peptide, 1 hour at room temperature
# Method: In order to analyze the enzyme inhibitory efficacy of the compounds of Examples 1 to 89, EHMT2 (Euchromatic histone-lysine N-methyltransferase 2) enzyme activity was measured using the LANCE TR-FRET™ analysis method of Perkin Elmer. When the EHMT2 enzyme is activated, the 9th lysine residue of the biotinylated-histone peptide is methylated and the EU-conjugated antibody is combined to the methylated histone peptide. Then, when the complex is irradiated with light of excitation wavelength, the complex emits light having a wavelength of 665 nm through FRET phenomenon. Accordingly, fluorescence was measured, and IC50 values were calculated through a software to evaluate the EHMT2 enzyme activity inhibitory effect of the compounds of Examples 1 to 89.
# Specific experimental methods are as follows. First, the compounds of Examples 1 to 89 of 1 nM to 100 μM (4× conc.) were put into a 384 well plate (25 μL/well), and 2 μM EEMT2/G9a enzyme (4× conc.) was put into the 384 well plate (25 μL/well). The plate was then centrifuged at 1,500 rpm for 5 seconds after sealing the plate with plate sealing foil. After incubating the EHMT2/G9a enzyme, SAM, and the compounds of Examples above at room temperature for 10 minutes, 2 μM histone H3 peptide (4× conc.) was added to the 384-well plate (25 μL/well). After sealing the plate with plate sealing foil and centrifuging at 1,500 rpm for 5 seconds, an enzymatic reaction was performed at room temperature for 1 hour. Upon completion of the enzyme reaction, 5 μL each of 200 nM Ulight™-Streptavidin (4× conc.) and 8 nM Eu-antibody (4× conc.) was added to each well of the plate. The plate was sealed with plate sealing foil, centrifuged at 1,500 rpm for 5 seconds and reacted at room temperature for 1 hour. The signal values were measured with Envision (Ex 320 nm, Em 665 nm), and all background values obtained by reacting without enzyme were deleted from the measured raw data values. Then, the EHMT2 enzyme activity inhibitory effect of the compounds of Examples 1 to 89 was converted into % values, and compared with the EHMT2 activity when treated with 4% DMSO vehicle (=0 nM compound) as 100%.
# Sequence of EHMT2 (Euchromatic histone-lysine N-methyltransferase 2) (Q96KQ7 whole entry): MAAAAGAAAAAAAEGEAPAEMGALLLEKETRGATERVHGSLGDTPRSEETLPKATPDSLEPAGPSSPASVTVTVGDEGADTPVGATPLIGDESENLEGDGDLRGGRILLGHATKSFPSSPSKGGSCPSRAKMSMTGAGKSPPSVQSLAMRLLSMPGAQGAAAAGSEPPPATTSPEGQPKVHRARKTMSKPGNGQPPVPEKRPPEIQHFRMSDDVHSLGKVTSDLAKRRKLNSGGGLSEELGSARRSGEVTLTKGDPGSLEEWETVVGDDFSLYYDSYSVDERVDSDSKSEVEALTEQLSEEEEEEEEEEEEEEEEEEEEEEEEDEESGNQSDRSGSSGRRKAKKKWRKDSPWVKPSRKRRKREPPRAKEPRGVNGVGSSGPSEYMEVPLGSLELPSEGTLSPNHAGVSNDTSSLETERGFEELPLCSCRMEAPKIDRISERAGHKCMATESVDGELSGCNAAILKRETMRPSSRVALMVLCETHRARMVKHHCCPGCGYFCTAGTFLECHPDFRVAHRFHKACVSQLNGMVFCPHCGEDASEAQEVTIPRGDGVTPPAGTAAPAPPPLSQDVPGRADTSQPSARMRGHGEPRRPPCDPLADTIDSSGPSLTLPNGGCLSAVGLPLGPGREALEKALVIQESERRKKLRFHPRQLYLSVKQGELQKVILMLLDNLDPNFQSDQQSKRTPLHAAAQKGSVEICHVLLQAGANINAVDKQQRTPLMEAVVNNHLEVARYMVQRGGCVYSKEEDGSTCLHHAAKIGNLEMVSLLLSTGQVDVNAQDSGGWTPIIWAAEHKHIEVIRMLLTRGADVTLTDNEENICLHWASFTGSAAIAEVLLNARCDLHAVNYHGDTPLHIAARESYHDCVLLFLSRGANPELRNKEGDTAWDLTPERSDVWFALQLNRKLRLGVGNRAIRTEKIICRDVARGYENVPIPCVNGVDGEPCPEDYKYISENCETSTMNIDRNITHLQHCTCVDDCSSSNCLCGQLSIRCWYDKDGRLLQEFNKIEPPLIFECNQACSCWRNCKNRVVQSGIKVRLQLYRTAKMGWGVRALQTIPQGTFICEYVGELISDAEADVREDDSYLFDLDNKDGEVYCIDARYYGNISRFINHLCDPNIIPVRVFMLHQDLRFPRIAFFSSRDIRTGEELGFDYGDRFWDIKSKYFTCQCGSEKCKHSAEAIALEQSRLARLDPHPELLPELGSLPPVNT
row,Structure (SMILES),IC50 [nM]
1,"COc1cc2c(NC3CCN(C(C)C)CC3)nc(N3CCCN(C)CC3)nc2cc1C#CCCN1CCCC1 [Example 48, N-(1-isopropylpiperidine-4-yl)-6-methoxy-2-(4-methyl-1,4-diazepane-1-yl)-7-(4-(pyrrolidine-1-yl)-1-butyne-1-yl)quinazoline-4-amine]",< 100
2,"COc1cc2c(NC3CCN(C4CC4)CC3)nc(N3CCCC3)nc2cc1C#CCCN1CCCC1 [Example 54, N-(1-cyclopropylpiperidine-4-yl)-6-methoxy-2-(pyrrolidine-1-yl)-7-(4-(pyrrolidine-1-yl)-1-butyne-1-yl)quinazoline-4-amine]",< 100
3,"COc1cc2c(NC3CCN(C4CC4)CC3)nc(N3CC[C@@H](F)C3)nc2cc1C#CCCN(C)C [Example 76, (R)-N-(1-cyclopropylpiperidine-4-yl)-7-(4-(dimethylamino)-1-butyne-1-yl)-2-(3-fluoropyrrolidine-1-yl)-6-methoxyquinazoline-4-amine]",1000 to 10000
4,"COc1cc2c(NCCN(C)C)nc(N(C)C)nc2cc1C#CCCN1CCCC1 [Example 61, N4-(2-(dimethylamino)ethyl)-6-methoxy-N2,N2-dimethyl-7-(4-(pyrrolidine-1-yl)-1-butyne-1-yl)quinazoline-2,4-diamine]",< 100
5,"COc1cc2c(NC3CC(C)(C)NC(C)(C)C3)nc(N3CCCC3)nc2cc1C#CCCN1CCCC1 [Example 73, 6-methoxy-2-(pyrrolidine-1-yl)-7-(4-(pyrrolidine-1-yl)-1-butyne-1-yl)-N-(2,2,6,6-tetramethylpiperidine-4-yl)quinazoline-4-amine]",< 100
6,"COc1cc2c(NC3CCN(C4CC4)CC3)nc(N3CCCCC3)nc2cc1C#CCCN(C)C [Example 24, N-(1-cyclopropylpiperidine-4-yl)-7-(4-(dimethylamino)-1-butyne-1-yl)-6-methoxy-2-(piperidine-1-yl)quinazoline-4-amine]",< 100
7,"COc1cc2c(NC3CCN(C(C)C)CC3)nc(N3CCCCC3)nc2cc1C#CCCN1CCCCC1 [Example 12, N-(1-isopropylpiperidine-4-yl)-6-methoxy-2-(piperidine-1-yl)-7-(4-(piperidine-1-yl)-1-butyne-1-yl)quinazoline-4-amine]",< 100
8,COc1cc2c(NC3CCN(C(C)C)CC3)nc(N3CCC(F)(F)CC3)nc2cc1C#CCCN(C)C [Example 4],1000 to 10000
9,"COc1cc2c(NC3CCN(c4ccccc4)CC3)nc(N3CCCCC3)nc2cc1C#CCCN(C)C [Example 25, 7-(4-(dimethylamino)-1-butyne-1-yl)-6-methoxy-N-(1-phenylpiperidine-4-yl)-2-(piperidine-1-yl)quinazoline-4-amine]",1000 to 10000
10,"COc1cc2c(NC3CCN(C)CC3)nc(N3CCCCC3)nc2cc1C#CCCN(C)C [Example 22, 7-(4-(dimethylamino)-1-butyne-1-yl)-6-methoxy-N-(1-methylpiperidine-4-yl)-2-(piperidine-1-yl)quinazoline-4-amine]",100 to 1000
11,"COc1cc2c(NC3CC(C)(C)NC(C)(C)C3)nc(N3CCCCC3)nc2cc1C#CCCN(C)C [Example 27, 7-(4-(dimethylamino)-1-butyne-1-yl)-6-methoxy-2-(piperidine-1-yl)-N-(2,2,6,6,-tetramethylpiperidine-4-yl)quinazoline-4-amine]",100 to 1000
12,"COc1cc2c(NC3CCN(CCO)CC3)nc(N3CCCC3)nc2cc1C#CCCN1CCCC1 [Example 70, 2-(4-((6-methoxy-2-(pyrrolidine-1-yl)-7-(4-(pyrrolidine-1-yl)-1-butyne-1-yl)quinazoline-4-yl)amino)piperidine-1-yl)ethanol]",< 100
13,"COc1cc2c(NC3CCN(C(C)C)CC3)nc(N3CC(F)C3)nc2cc1C#CCCN1CCCC1 [Example 59, 2-(3-fluoroazetidine-1-yl)-N-(1-isopropylpiperidine-4-yl)-6-methoxy-7-(4-(pyrrolidine-1-yl)-1-butyne-1-yl)quinazoline-4-amine]",< 100
14,"COc1cc2c(NC3CCN(C(C)C)CC3)nc(N3CCN(C)CC3)nc2cc1C#CCCN1CCCCC1 [Example 39, N-(1-Disopropylpiperidine-4-yl)-6-methoxy-2-(4-methylpiperazine-1-yl)-7-(4-(piperidine-1-yl)-1-butyne-1-yl)quinazoline-4-amine]",1000 to 10000
15,"COc1cc2c(NCCN(C)C)nc(N3CCCN(C)CC3)nc2cc1C#CCCN1CCCC1 [Example 62, N1-(6-methoxy-2-(4-methyl-1,4-diazepane-1-yl)-7-(4-(pyrrolidine-1-yl)-1-butyne-1-yl)quinazoline-4-yl)-N2,N2-dimethylethane-1,2-diamine]",< 100
16,"COc1cc2c(NC3CCN(C(C)C)CC3)nc(N3CCCN(C)CC3)nc2cc1C#CCCN(C)C [Example 17, 7-(4-(dimethylamino)-1-butyne-1-yl)-N-(1-isopropylpiperidine-4-yl)-6-methoxy-2-(4-methyl-1,4-diazepane-1-yl)quinazoline-4-amine]",< 100
17,COc1cc2c(NC3CCN(CCO)CC3)nc(N3CC[C@@H](F)C3)nc2cc1C#CCCN1CCCC1 [Example 89],< 100
18,"COc1cc2c(NC3CCN(C(C)C)CC3)nc(N3CCCC3)nc2cc1/C=C/CCN1CCCC1 [Example 85, (E)-N-(1-isopropylpiperidine-4-yl)-6-methoxy-2-(pyrrolidine-1-yl)-7-(4-(pyrrolidine-1-yl)-1-butene-1-yl)quinazoline-4-amine]",< 100
19,"COc1cc2c(NC3CCN(C(C)C)CC3)nc(N3CCN(C)CC3)nc2cc1C#CCCN1CCCC1 [Example 38, N-(1-isopropylpiperidine-4-yl)-6-methoxy-2-(4-methylpiperazine-1-yl)-7-(4-(pyrrolidine-1-yl)-1-butyne-1-yl)quinazoline-4-amine]",100 to 1000
20,"CCCN1CCC(Nc2nc(N3CCCCC3)nc3cc(C#CCCN4CCCC4)c(OC)cc23)CC1 [Example 67, 6-methoxy-2-(piperidine-1-yl)-N-(1-propylpiperidine-4-yl)-7-(4-(pyrrolidine-1-yl)-1-butyne-1-yl)quinazoline-4-amine]",< 100
21,"COc1cc2c(NC3CCN(C(C)C)CC3)nc(N3CCCCC3)nc2cc1/C=C/CCN1CCCCC1 [Example 66, (E)-N-(1-isopropylpiperidine-4-yl)-6-methoxy-2-(piperidine-1-yl)-7-(4-(piperidine-1-yl)-1-butene-1-yl)quinazoline-4-amine]",< 100
22,"COc1cc2c(NC3CCN(Cc4ccccc4)CC3)nc(N3CCCCC3)nc2cc1C#CCCN(C)C [Example 18, N-(1-benzylpiperidine-4-yl)-7-(4-(dimethylamino)-1-butyne-1-yl)-6-methoxy-2-(piperidine-1-yl)quinazoline-4-amine]",1000 to 10000
23,"COc1cc2c(NC3CCN(C(C)C)CC3)nc(N3CCCCC3)nc2cc1C#CCCN1CC[C@@H](F)C1 [Example 30, (R)-7-(4-(3-fluoropyrrolidine-1-yl)-1-butyne-1-yl)-N-(1-isopropylpiperidine-4-yl)-6-methoxy-2-(piperidine-1-yl)quinazoline-4-amine]",100 to 1000
